Source: article PMC6085350, “Small molecule inhibitors of RAS-effector protein interactions derived using an intracellular antibody fragment” (Nature Communications, 2018)

Columns and labels:
[1] = biological target: T1, HRAS^G12V interacting with PI3Kα, PI3Kγ, CRAF-RBD or full-length CRAF and RALGDS-RBD (Homo sapiens, UniProt P01112, G12V); experiment: BRET2 RAS-effector PPI assay, HRAS G12V; format: cell-based; conditions: HEK293T, 5, 10 and 20 μM
T1 construct: Transfection vector encoded full-length RAS was fused to the donor molecule RLuc8; expressed in transfected cells; host or cells: HEK293T
Description: (§1) Fig. 4 Abd-7 disrupting RAS-effector interactions. HEK293T cells were transfected with different BRET-based RAS biosensor expression vectors to evaluate the inhibition of RAS PPI in cells by compound Abd-7. Transfection vector encoded full-length RAS was fused to the donor molecule RLuc8 and the effectors fused to the acceptor molecule GFP[2]. a Effect of Abd-2 and Abd-7 on KRAS^G12D interaction with PI3Kα, PI3Kγ, CRAF or RALGDS. The BRET signal is plotted as a % of control cells treated with DMSO only and dose response to 5, 10 and 20 μM of each compound. b Effect of Abd-2 and Abd-7 on the BRET signal from interaction of KRAS^G12 mutants (Rluc8-KRAS^G12) and full-length CRAF (GFP[2]-CRAF FL). c, d Effect of Abd-2 and Abd-7 on the interaction of NRAS^Q61H (c) and HRAS^G12V (d) with various RAS effectors domain and with full-length CRAF. The BRET ratio corresponds to the light emitted by the GFP[2] acceptor constructs (515 nm ± 30) upon addition of Coelenterazine 400a divided by the light emitted by the RLuc8 donor constructs (410 nm ± 80). The normalized BRET ratio is the BRET ratio normalized to the DMSO negative and calculated as follows: (BRETcompound/BRETDMSO) x 100, where BRETcompound corresponds to the BRET ratio for the compound-treated cells, BRETDMSO to the DMSO-treated cells. Each experiment was repeated at least three times. […]

[2] = biological target: T2, NRAS^Q61H interacting with PI3Kα, PI3Kγ, CRAF-RBD or full-length CRAF and RALGDS-RBD (Homo sapiens, UniProt P01111, Q61H); experiment: BRET2 RAS-effector PPI assay, NRAS Q61H; format: cell-based; conditions: HEK293T, 5, 10 and 20 μM
T2 construct: Transfection vector encoded full-length RAS was fused to the donor molecule RLuc8; expressed in transfected cells; host or cells: HEK293T
Description: as §1

[3] = biological target: T3, KRAS^G12D interaction with PI3Kα, PI3Kγ, CRAF RBD and RALGDS RA (Homo sapiens, UniProt P01116, G12D); experiment: BRET2 RAS-effector PPI assay, KRAS G12D; format: cell-based; conditions: HEK293T, 5, 10 and 20 μM, 20 h
T3 construct: Transfection vector encoded full-length RAS was fused to the donor molecule RLuc8; expressed in transfected cells; host or cells: HEK293T
Description: as §1

[4] = biological target: T4, MEK1 (Homo sapiens, UniProt Q02750); experiment: Kinase panel (KinaseProfiler); format: biochemical; conditions: MEK1, 10μM
T4 construct: purchased Eurofins Pharma Discovery Services (KinaseProfiler)
T4 sequence (Q02750 whole entry): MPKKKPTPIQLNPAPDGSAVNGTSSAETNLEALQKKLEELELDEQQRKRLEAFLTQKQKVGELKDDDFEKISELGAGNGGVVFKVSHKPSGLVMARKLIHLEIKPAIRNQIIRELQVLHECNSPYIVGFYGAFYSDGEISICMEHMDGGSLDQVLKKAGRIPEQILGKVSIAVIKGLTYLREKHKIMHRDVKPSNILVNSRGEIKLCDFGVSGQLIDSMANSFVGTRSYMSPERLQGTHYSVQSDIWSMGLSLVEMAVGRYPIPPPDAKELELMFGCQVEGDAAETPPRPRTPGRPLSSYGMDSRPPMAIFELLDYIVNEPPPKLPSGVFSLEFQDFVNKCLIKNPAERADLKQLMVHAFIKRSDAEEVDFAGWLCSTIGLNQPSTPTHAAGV
Procedure: (§2) Experiments were performed by Eurofins Pharma Discovery Services. The KinaseProfiler™ assay protocol guide can be downloaded from their website: www.eurofins.com/discoveryservices. The guide contains information on the buffer conditions, substrate and reference inhibitor blank used for each kinase.
(§3) Supplementary Table 3. Assessment of potential interaction of Abd-7 with a human kinase
(§4) Kinase % kinase activity in
(§5) A panel of 14 Kinases (relevant to the RAS pathway) has been screened against Abd-7
(§6) (10μM) and the kinase activity was measured. […] of activity was observe for all
(§7) function of the selected and RAS relevant kinase proteins.

[5] = biological target: T5, PKBα (Homo sapiens, UniProt P31749); experiment: Kinase panel (KinaseProfiler); format: biochemical; conditions: 10μM
T5 construct: purchased Eurofins Pharma Discovery Services (KinaseProfiler)
T5 sequence (P31749 whole entry): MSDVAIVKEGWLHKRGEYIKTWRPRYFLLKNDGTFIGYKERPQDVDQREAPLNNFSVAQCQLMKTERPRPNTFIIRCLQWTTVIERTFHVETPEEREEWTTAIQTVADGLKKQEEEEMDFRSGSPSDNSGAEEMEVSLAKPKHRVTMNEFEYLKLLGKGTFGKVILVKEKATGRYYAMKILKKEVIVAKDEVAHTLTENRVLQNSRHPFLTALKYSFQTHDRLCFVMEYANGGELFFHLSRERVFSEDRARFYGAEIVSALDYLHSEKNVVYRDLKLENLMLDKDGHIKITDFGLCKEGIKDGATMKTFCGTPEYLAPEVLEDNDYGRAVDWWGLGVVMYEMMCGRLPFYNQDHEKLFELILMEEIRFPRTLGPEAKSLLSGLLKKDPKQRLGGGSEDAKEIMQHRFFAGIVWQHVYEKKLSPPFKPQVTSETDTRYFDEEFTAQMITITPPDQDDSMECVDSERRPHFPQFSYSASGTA
Procedure: as §2, §3, §4, §5, §6, §7

[6] = biological target: T6, CRAF (Homo sapiens, UniProt P04049); experiment: Kinase panel (KinaseProfiler); format: biochemical; conditions: 10μM
T6 construct: purchased Eurofins Pharma Discovery Services (KinaseProfiler)
T6 sequence (P04049 whole entry): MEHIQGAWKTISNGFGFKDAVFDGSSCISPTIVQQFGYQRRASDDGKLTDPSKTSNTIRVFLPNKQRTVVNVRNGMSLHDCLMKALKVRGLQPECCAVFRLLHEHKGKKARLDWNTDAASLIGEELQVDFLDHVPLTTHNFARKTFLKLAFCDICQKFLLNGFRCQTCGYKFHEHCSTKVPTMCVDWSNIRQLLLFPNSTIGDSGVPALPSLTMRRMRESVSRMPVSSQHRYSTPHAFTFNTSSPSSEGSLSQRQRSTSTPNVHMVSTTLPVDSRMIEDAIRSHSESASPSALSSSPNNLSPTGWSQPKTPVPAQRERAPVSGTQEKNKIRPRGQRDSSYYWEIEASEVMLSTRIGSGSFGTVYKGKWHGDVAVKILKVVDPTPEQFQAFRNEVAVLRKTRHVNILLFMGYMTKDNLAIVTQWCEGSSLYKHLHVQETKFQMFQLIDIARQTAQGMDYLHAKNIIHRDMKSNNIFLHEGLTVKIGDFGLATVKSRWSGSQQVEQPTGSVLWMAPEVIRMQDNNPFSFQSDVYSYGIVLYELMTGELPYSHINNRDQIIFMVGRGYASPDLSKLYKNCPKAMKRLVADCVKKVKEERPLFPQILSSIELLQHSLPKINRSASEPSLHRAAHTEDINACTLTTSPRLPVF
Procedure: as §2, §3, §4, §5, §6, §7

[7] = biological target: T7, PKBβ (Homo sapiens, UniProt P31751); experiment: Kinase panel (KinaseProfiler); format: biochemical; conditions: 10μM
T7 construct: purchased Eurofins Pharma Discovery Services (KinaseProfiler)
T7 sequence (P31751 whole entry): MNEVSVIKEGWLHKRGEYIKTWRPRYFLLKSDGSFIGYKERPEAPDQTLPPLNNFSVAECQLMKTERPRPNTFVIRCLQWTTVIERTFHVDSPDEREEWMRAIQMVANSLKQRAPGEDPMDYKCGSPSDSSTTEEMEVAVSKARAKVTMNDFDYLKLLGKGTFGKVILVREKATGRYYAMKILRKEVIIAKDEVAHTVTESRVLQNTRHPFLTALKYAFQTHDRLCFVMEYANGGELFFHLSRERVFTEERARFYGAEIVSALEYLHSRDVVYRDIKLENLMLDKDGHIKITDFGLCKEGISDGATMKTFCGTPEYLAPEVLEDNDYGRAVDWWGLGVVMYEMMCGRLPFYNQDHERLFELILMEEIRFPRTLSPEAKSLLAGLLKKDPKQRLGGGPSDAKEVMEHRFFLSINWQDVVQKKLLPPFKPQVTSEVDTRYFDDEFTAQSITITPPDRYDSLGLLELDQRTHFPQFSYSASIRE
Procedure: as §2, §3, §4, §5, §6, §7

[8] = biological target: T8, MEK2 (Homo sapiens, UniProt P36507); experiment: Kinase panel (KinaseProfiler); format: biochemical; conditions: MEK2, 10μM
T8 construct: purchased Eurofins Pharma Discovery Services (KinaseProfiler)
Procedure: as §2, §3, §4, §5, §6, §7

[9] = biological target: T9, MAPK2 (Homo sapiens, UniProt P28482); experiment: Kinase panel (KinaseProfiler); format: biochemical; conditions: MAPK2, 10μM
T9 construct: purchased Eurofins Pharma Discovery Services (KinaseProfiler)
T9 sequence (P28482 whole entry): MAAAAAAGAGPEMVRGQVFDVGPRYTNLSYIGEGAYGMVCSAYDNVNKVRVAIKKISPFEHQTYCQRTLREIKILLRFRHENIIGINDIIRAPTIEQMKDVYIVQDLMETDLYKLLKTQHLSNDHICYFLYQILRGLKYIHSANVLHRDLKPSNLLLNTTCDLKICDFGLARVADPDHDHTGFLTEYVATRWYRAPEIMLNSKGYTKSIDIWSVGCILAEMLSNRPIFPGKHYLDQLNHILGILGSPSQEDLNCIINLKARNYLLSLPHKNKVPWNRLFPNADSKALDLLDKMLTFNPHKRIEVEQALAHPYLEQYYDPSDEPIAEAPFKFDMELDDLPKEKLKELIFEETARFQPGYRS
Procedure: as §2, §3, §4, §5, §6, §7

[10] = biological target: T10, BRAF (Homo sapiens, UniProt P15056); experiment: Kinase panel (KinaseProfiler); format: biochemical; conditions: 10μM
T10 construct: purchased Eurofins Pharma Discovery Services (KinaseProfiler)
Procedure: as §2, §3, §4, §5, §6, §7

[11] = biological target: T11, EGFR (Homo sapiens, UniProt P00533); experiment: Kinase panel (KinaseProfiler); format: biochemical; conditions: 10μM
T11 construct: purchased Eurofins Pharma Discovery Services (KinaseProfiler)
T11 sequence (P00533 25-1210): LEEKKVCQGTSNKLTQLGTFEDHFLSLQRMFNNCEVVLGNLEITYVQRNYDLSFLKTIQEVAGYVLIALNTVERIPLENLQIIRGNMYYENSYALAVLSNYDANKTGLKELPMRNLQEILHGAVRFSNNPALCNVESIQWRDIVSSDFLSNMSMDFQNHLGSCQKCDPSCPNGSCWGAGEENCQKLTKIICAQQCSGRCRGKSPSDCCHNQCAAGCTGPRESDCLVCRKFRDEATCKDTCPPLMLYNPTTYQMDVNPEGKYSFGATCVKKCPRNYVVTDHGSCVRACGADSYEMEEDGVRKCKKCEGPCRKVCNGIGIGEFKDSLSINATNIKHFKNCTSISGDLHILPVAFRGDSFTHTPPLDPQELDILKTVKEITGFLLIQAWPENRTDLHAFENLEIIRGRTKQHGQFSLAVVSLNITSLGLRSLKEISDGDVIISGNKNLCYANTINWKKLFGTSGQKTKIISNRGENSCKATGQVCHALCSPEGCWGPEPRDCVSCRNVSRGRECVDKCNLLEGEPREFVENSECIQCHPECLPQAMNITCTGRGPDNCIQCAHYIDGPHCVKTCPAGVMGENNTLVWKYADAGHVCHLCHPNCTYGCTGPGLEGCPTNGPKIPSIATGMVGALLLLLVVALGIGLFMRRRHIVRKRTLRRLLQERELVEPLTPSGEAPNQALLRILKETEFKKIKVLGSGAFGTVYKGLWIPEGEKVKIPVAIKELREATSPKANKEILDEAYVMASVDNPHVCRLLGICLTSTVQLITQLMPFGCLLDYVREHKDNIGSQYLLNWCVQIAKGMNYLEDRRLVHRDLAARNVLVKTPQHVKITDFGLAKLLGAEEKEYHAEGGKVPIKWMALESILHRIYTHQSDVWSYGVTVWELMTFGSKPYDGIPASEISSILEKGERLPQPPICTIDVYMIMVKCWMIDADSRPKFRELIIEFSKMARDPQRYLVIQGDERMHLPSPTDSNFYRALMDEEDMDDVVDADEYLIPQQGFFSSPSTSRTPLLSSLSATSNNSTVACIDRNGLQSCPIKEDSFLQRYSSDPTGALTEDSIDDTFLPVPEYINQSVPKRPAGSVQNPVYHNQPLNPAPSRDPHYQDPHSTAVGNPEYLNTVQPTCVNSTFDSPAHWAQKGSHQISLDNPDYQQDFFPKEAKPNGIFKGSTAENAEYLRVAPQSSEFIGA
Procedure: as §2, §3, §4, §5, §6, §7

[12] = biological target: T12, MAPK1 (Homo sapiens, UniProt P27361); experiment: Kinase panel (KinaseProfiler); format: biochemical; conditions: MAPK1, 10μM
T12 construct: purchased Eurofins Pharma Discovery Services (KinaseProfiler)
T12 sequence (P27361 whole entry): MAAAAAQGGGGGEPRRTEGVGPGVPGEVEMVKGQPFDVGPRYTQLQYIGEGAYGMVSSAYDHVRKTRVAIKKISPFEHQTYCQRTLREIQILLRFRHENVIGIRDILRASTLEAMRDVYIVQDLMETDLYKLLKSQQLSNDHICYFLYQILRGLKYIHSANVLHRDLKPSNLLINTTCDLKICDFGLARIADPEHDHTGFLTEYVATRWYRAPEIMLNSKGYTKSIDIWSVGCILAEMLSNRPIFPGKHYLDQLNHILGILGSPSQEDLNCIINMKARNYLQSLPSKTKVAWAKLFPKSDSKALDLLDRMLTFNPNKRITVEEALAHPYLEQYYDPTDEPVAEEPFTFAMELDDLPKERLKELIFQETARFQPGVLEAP
Procedure: as §2, §3, §4, §5, §6, §7

[13] = biological target: T13, PDK1 (Homo sapiens, UniProt O15530); experiment: Kinase panel (KinaseProfiler); format: biochemical; conditions: PDK1, 10μM
T13 construct: purchased Eurofins Pharma Discovery Services (KinaseProfiler)
T13 sequence (O15530 whole entry): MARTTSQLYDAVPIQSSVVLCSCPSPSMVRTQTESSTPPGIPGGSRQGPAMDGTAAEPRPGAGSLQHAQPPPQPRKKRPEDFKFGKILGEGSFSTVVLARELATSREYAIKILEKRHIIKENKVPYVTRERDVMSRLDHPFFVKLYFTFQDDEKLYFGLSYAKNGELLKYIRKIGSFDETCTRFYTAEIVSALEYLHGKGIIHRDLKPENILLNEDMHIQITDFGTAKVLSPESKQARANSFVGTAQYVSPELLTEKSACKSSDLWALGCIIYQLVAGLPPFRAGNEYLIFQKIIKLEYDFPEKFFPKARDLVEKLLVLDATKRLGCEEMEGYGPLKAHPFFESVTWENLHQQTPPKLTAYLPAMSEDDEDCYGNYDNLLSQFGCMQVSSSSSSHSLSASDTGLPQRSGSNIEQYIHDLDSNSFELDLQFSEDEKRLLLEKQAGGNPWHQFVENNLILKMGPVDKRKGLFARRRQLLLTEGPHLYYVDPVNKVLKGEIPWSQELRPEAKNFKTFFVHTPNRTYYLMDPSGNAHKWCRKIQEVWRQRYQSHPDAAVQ
Procedure: as §2, §3, §4, §5, §6, §7

[14] = biological target: T14, mTOR (Homo sapiens, UniProt P42345); experiment: Kinase panel (KinaseProfiler); format: biochemical; conditions: 10μM
T14 construct: purchased Eurofins Pharma Discovery Services (KinaseProfiler)
Procedure: as §2, §3, §4, §5, §6, §7

[15] = biological target: T15, PKBγ (Homo sapiens, UniProt Q9Y243); experiment: Kinase panel (KinaseProfiler); format: biochemical; conditions: 10μM
T15 construct: purchased Eurofins Pharma Discovery Services (KinaseProfiler)
T15 sequence (Q9Y243 whole entry): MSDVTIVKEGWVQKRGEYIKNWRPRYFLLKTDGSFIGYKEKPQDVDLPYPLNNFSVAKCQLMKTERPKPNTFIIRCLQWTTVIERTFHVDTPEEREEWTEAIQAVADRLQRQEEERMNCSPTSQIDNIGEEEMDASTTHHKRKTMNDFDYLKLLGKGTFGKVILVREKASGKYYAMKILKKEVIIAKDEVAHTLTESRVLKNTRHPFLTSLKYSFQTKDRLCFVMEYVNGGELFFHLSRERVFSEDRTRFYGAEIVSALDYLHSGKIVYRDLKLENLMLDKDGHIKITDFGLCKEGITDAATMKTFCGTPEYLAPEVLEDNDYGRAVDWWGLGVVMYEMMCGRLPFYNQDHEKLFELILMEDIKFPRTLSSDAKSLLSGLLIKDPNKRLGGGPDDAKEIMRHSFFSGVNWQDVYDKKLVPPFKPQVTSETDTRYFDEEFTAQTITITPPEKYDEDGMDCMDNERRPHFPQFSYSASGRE
Procedure: as §2, §3, §4, §5, §6, §7

**Q.** With `O=C(NCC1COc2ccccc2O1)c1ccco1` (stereo not drawn) [Abd-2] as the compound, how does the “effect on BRET signal, HRAS^G12V with effectors” value [1] read?
**A.** does not

**Q.** What about the “effect on BRET signal, NRAS^Q61H with effectors” value [2] of the same compound?
**A.** does not

**Q.** What about the “effect on BRET signal, KRAS^G12D with PI3Kα, PI3Kγ, CRAF RBD, RALGDS RA” value [3] of the same compound?
**A.** no effect

**Q.** What does the source list for `COc1nc(-c2cccc3c2OCCO3)ccc1Nc1ccc(CN(C)C)cc1` [Abd-7]?
**A.** effect on BRET signal, HRAS^G12V with effectors [1]: interferes; effect on BRET signal, NRAS^Q61H with effectors [2]: interferes; % kinase activity in the presence of Abd-7 [4]: 105%; % kinase activity in the presence of Abd-7 [5]: 91%; % kinase activity in the presence of Abd-7 [6]: 101%; % kinase activity in the presence of Abd-7 [7]: 93%; % kinase activity in the presence of Abd-7 [8]: 101%; % kinase activity in the presence of Abd-7 [9]: 111%; % kinase activity in the presence of Abd-7 [10]: 104%; % kinase activity in the presence of Abd-7 [11]: 93%; % kinase activity in the presence of Abd-7 [12]: 126%; % kinase activity in the presence of Abd-7 [13]: 107%; % kinase activity in the presence of Abd-7 [14]: 89%; % kinase activity in the presence of Abd-7 [15]: 103%; effect on BRET signal, KRAS^G12D with PI3Kα, PI3Kγ, CRAF RBD, RALGDS RA [3]: reduces the BRET signal
